Measurements published in the Kinase Knowledgebase extract (Sharma et al. 2016).
pIC50: −log10 of the molar value.

Biological target: MAPK14 (human) (UniProt Q16539)
Assay: Inhibition of MAPK14 Kinase Activity

MAPK14 (human), sequence (Q16539 whole entry, looked up): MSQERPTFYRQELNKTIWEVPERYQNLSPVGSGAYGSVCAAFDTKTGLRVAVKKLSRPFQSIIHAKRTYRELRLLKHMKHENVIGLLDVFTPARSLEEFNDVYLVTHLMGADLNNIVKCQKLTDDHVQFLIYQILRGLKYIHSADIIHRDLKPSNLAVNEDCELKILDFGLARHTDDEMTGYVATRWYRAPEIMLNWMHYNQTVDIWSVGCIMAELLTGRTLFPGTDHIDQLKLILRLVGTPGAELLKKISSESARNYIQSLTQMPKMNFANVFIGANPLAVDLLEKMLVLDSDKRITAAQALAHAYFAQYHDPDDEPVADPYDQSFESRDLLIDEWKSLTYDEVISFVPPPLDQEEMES

Row | pIC50 | SMILES
1 | ≥ 6.00 | CC(C)NC(=O)c1csc(-c2c(-c3ccc(F)cc3)n[nH]c2C2CCN(C(=O)c3ccccn3)CC2)n1
2 | ≥ 6.00 | CC(C)NC(=O)c1csc(-c2oc(CN3CCOCC3)nc2-c2ccc(F)cc2)n1
3 | ≥ 6.00 | CC(C)NC(=O)c1csc(-c2oc(CNCCC(C)(C)C)nc2-c2ccc(F)cc2)n1
4 | ≥ 6.00 | Cc1cccc(CCC(=O)N2CCN(Cc3nc(-c4ccc(F)cc4)c(-c4nc(C(=O)NC(C)C)cs4)o3)CC2)c1
5 | ≥ 6.00 | CC(C)NC(=O)c1csc(-c2oc(CN3CCN(C(=O)c4cc([N+](=O)[O-])ccc4Cl)CC3)nc2-c2ccc(F)cc2)n1
6 | ≥ 6.00 | CC(C)NC(=O)c1csc(-c2oc(CNC(=O)c3ccc(C#N)cc3)nc2-c2ccc(F)cc2)n1
7 | ≥ 6.00 | CC(=O)Nc1cccc(C(=O)N2CCN(Cc3nc(-c4ccc(F)cc4)c(-c4nc(C(=O)NC(C)C)cs4)o3)CC2)c1
8 | ≥ 6.00 | COc1ccccc1NC(=O)c1csc(-c2sc(C)nc2-c2ccc(F)cc2)n1
9 | ≥ 6.00 | CC(C)NC(=O)c1csc(-c2oc(CNC(=O)c3c(F)cccc3F)nc2-c2ccc(F)cc2)n1
10 | ≥ 6.00 | CC(C)NC(=O)c1csc(-c2oc(CNC(=O)c3cc4ccccc4s3)nc2-c2ccc(F)cc2)n1
11 | ≥ 6.00 | CC(CO)NC(=O)c1csc(-c2c(-c3ccc(F)cc3)n[nH]c2C2CCNCC2)n1 (stereo not drawn)
12 | ≥ 6.00 | Cc1onc(-c2ccc(Cl)cc2)c1-c1ccn(C(=O)NCCO)n1
13 | ≥ 6.00 | CCNC(=O)c1csc(-c2sc(C)nc2-c2ccc(F)cc2)n1
14 | ≥ 6.00 | CCC(CO)NC(=O)c1csc(-c2sc(C)nc2-c2ccc(F)cc2)n1 (stereo not drawn)
15 | ≥ 6.00 | Cc1cc(C)c(C(=O)N2CCN(Cc3nc(-c4ccc(F)cc4)c(-c4nc(C(=O)NC(C)C)cs4)o3)CC2)c(C)c1
16 | ≥ 6.00 | Cc1onc(-c2ccc(F)cc2Cl)c1-c1ccn(C(=O)NC(C)C)n1
17 | ≥ 6.00 | CC(=O)Nc1cccc(C(=O)N2CCC(c3[nH]nc(-c4ccc(F)cc4)c3-c3nc(C(=O)NC(C)C)cs3)CC2)c1
18 | ≥ 6.00 | CC(C)NC(=O)c1csc(-c2oc(CNC(=O)c3cccnc3Cl)nc2-c2ccc(F)cc2)n1
19 | ≥ 6.00 | Cc1nc(-c2ccc(F)cc2)c(-c2nc(C(=O)Nc3ccc4c(c3)OCCO4)cs2)s1
20 | ≥ 6.00 | CCNC(=O)c1csc(-c2c(-c3ccc(F)cc3)n[nH]c2C2CCN(C(=O)CO)CC2)n1
21 | ≥ 6.00 | CC(C)NC(=O)c1csc(-c2oc(CN3CCN(C(=O)C=O)CC3)nc2-c2ccc(F)cc2)n1

Row | pIC50 | SMILES
22 | ≥ 6.00 | Cc1nc(-c2ccc(F)cc2)c(-c2nc(C(=O)NCCOc3ccccc3)cs2)s1
23 | ≥ 6.00 | Cc1nc(-c2ccc(F)cc2)c(-c2nc(C(=O)NCc3ccccn3)cs2)s1
24 | ≥ 6.00 | CC(C)NC(=O)c1csc(-c2oc(CNC(=O)c3cc(O)c(O)c(O)c3)nc2-c2ccc(F)cc2)n1
25 | ≥ 6.00 | Cc1cccc([N+](=O)[O-])c1C(=O)NCc1nc(-c2ccc(F)cc2)c(-c2nc(C(=O)NC(C)C)cs2)o1
26 | ≥ 6.00 | Cc1nc(-c2ccc(F)cc2)c(-c2nc(C(=O)NCc3cccc(F)c3)cs2)s1
27 | ≥ 6.00 | CC(C)NC(=O)c1csc(-c2oc(CNC(=O)c3ccc(C=O)cc3)nc2-c2ccc(F)cc2)n1
28 | ≥ 6.00 | CC(C)NC(=O)c1csc(-c2oc(CN3CCN(C(=O)c4cc(O)ccc4O)CC3)nc2-c2ccc(F)cc2)n1
29 | ≥ 6.00 | CC(C)NC(=O)c1csc(-c2oc(CN3CCN(C(=O)c4ccc5cccc(O)c5n4)CC3)nc2-c2ccc(F)cc2)n1
30 | ≥ 6.00 | CC(C)NC(=O)c1csc(-c2oc(CNC(=O)C(Cc3ccccc3)NC(=O)OC(C)(C)C)nc2-c2ccc(F)cc2)n1 (stereo not drawn)
31 | ≥ 6.00 | CC(C)NC(=O)n1ccc(-c2c(-c3ccc(F)cc3)noc2CN(C)C)n1
32 | ≥ 6.00 | COC[C@H]1CCCN1C(=O)c1csc(-c2sc(C)nc2-c2ccc(F)cc2)n1
33 | ≥ 6.00 | Cc1nc(-c2ccc(F)cc2)c(-c2nc(C(=O)NCCc3ccc(S(N)(=O)=O)cc3)cs2)s1
34 | ≥ 6.00 | COc1ccc(O)c(C(=O)N2CCN(Cc3nc(-c4ccc(F)cc4)c(-c4nc(C(=O)NC(C)C)cs4)o3)CC2)c1
35 | ≥ 6.00 | CC(C)NC(=O)c1csc(-c2oc(CNC(=O)C(F)(F)F)nc2-c2ccc(F)cc2)n1
36 | ≥ 6.00 | Cc1cc(C(=O)N2CCN(Cc3nc(-c4ccc(F)cc4)c(-c4nc(C(=O)NC(C)C)cs4)o3)CC2)n[nH]1
37 | ≥ 6.00 | CC(C)NC(=O)c1csc(-c2oc(CNC(=O)C=Cc3cccc(O)c3)nc2-c2ccc(F)cc2)n1
38 | ≥ 6.00 | CC(C)NC(=O)c1csc(-c2oc(CN3CCN(C(=O)Cc4ccc(C(F)(F)F)cc4)CC3)nc2-c2ccc(F)cc2)n1
39 | ≥ 6.00 | COc1cc(CN(C)C(=O)c2csc(-c3sc(C)nc3-c3ccc(F)cc3)n2)cc(OC)c1OC
40 | ≥ 6.00 | CC(C)NC(=O)c1csc(-c2oc(CNC(=O)c3cc(Cl)ccc3Cl)nc2-c2ccc(F)cc2)n1
41 | ≥ 6.00 | CC(C)NC(=O)c1csc(-c2oc(CNC(=O)C(C)(C)C)nc2-c2ccc(F)cc2)n1
42 | ≥ 6.00 | Cc1[nH]nc(-c2ccc(F)cc2)c1-c1nc(C(=O)NCc2ccncc2)cs1

Row | pIC50 | SMILES
43 | ≥ 6.00 | CC(C)NC(=O)c1csc(-c2oc(CNC(=O)C(O)CCl)nc2-c2ccc(F)cc2)n1 (stereo not drawn)
44 | ≥ 6.00 | Cc1nc(-c2ccc(F)cc2)c(-c2nc(C(=O)NC(C)C)cs2)[nH]1
45 | ≥ 6.00 | CC(C)NC(=O)c1csc(-c2oc(CNC(=O)c3cccc(Cl)c3Cl)nc2-c2ccc(F)cc2)n1
46 | ≥ 6.00 | COc1ccc(Br)c(C(=O)NCc2nc(-c3ccc(F)cc3)c(-c3nc(C(=O)NC(C)C)cs3)o2)c1
47 | ≥ 6.00 | CC(C)NC(=O)c1csc(-c2oc(CNC(=O)c3cc4cc(Cl)ccc4o3)nc2-c2ccc(F)cc2)n1
48 | ≥ 6.00 | Cc1nc(-c2ccc(F)cc2)c(-c2nc(C(=O)NCCC(C)C)cs2)s1
49 | ≥ 6.00 | CC(C)NC(=O)c1csc(-c2c(-c3ccccc3)n[nH]c2C2CCN(C(=O)c3ccc(Cl)c([N+](=O)[O-])c3)CC2)n1
50 | ≥ 6.00 | Cc1[nH]nc(-c2ccc(F)cc2)c1-c1nc(C(=O)NCC2CC2)cs1
51 | ≥ 6.00 | CC(C)NC(=O)c1csc(-c2oc(CNC(=O)c3cscn3)nc2-c2ccc(F)cc2)n1
52 | ≥ 6.00 | CC(C)NC(=O)c1csc(-c2oc(CNC(=O)c3c(F)c(F)c(F)c(F)c3F)nc2-c2ccc(F)cc2)n1
53 | ≥ 6.00 | CCOC(=O)CC(=O)N1CCN(Cc2nc(-c3ccc(F)cc3)c(-c3nc(C(=O)NC(C)C)cs3)o2)CC1
54 | ≥ 6.00 | CC(C)NC(=O)c1csc(-c2c(-c3ccc(F)cc3)noc2CNCCN2CCCC2)n1
55 | ≥ 6.00 | CCOC(=O)CC1C(=O)NCCN1C(=O)c1csc(-c2sc(C)nc2-c2ccc(F)cc2)n1 (stereo not drawn)
56 | ≥ 6.00 | Cc1cccc(CNC(=O)c2csc(-c3sc(C)nc3-c3ccc(F)cc3)n2)c1
57 | ≥ 6.00 | Cc1nc(-c2ccc(F)cc2)c(-c2nc(C(=O)NCCc3ccccc3F)cs2)s1
58 | ≥ 6.00 | CC(=O)N1CCN(Cc2nc(-c3ccc(F)cc3)c(-c3nc(C(=O)NC(C)C)cs3)o2)CC1
59 | ≥ 6.00 | Cc1nc(-c2ccc(F)cc2)c(-c2nc(C(=O)NC3CCCCC3)cs2)s1
60 | ≥ 6.00 | CC(C)NC(=O)c1csc(-c2oc(CNC(C)CO)nc2-c2ccc(F)cc2)n1 (stereo not drawn)
61 | ≥ 6.00 | CC(C)NC(=O)c1csc(-c2c(-c3ccc(F)cc3)n[nH]c2C2CCN(C(=O)c3ccc(C(C)(C)C)cc3)CC2)n1

Row | SMILES | pIC50
62 | CC(C)NC(=O)c1csc(-c2oc(CN3CCN(C(=O)Cc4ccc(O)c(F)c4)CC3)nc2-c2ccc(F)cc2)n1 | ≥ 6.00
63 | CC(C)NC(=O)c1csc(-c2oc(CN3CCN(C(=O)Cc4cccc(O)c4)CC3)nc2-c2ccc(F)cc2)n1 | ≥ 6.00
